Earlier results as cited in patent US11857510B2, “Methods and compositions for treating congenital diarrhea disorder” (NAPO PHARMACEUTICALS, INC., priority 2017, dated 2024).

Conditions: human, in vivo

For Crofelemer, the “absorption from the GI tract” value is given as “little or no absorption”, the systemic bioavailability is given as “virtually no systemic bioavailability” and the tolerability is given as “well tolerated”.
